# Measurements taken from patent publication US20240317780A1, “RADIOPHARMACEUTICAL SOMATOSTATIN RECEPTOR LIGANDS AND PRECURSORS THEREOF” (Technische Universität München, priority 2021, published 2024).
# What was measured:
# HSA = HSA (Homo sapiens, UniProt P02768); assay: HSA binding by RIAC method (gel filtration, apparent molecular weight); format: in vitro ADME; details: HSA binding as apparent molecular weight, 700 μM HSA in PBS mobile phase
# Description: A gel filtration column Superdex 75 Increase 10/300 GL (GE Healthcare, Uppsala, Sweden) was beforehand calibrated following the producer's recommendations with a commercially available gel filtration calibration kit (GE Healthcare, Buckinghamshire, UK) comprising conalbumin (MW: 75 kDa), ovalbumin (44 kDa), carbonic anhydrase (29 kDa), ribonuclease A (13.7 kDa) and aprotinin (6.5 kDa) as reference proteins of known molecular weight. AMSEC experiments were conducted using a constant flow rate of 0.8 mL/min at rt. A solution of HSA in PBS at physiological concentration (700 μM) was used as the mobile phase. SST2 ligands were labelled as described with molar activities of 10-20 GBq/μmol. Probes of 1.0 MBq of the radioligand were injected directly from the labelling solution. HSA binding was expressed as an apparent molecular weight MW calculated from the retention time of the radioligand using the determined calibration curve.
# For evaluation, experimentally determined retention times tR are first converted into elution volumes Ve by multiplying with the flow rate and thereafter converted into partition coefficients Kav following the equation
# where V0 is the column void volume (8.027 mL) and Vc is the geometric column volume (24 mL). Using the equation given by the trend line plot of the column calibration
# the apparent molecular weight MW is calculated as […]
# [1] = Octanol-water distribution coefficient (logD pH 7.4) of the labeled tracer; format: physicochemical; details: n-octanol/PBS pH 7.4, room temperature
# Description: Approximately 1 MBq of the labeled tracer was dissolved in 1 mL of a 1:1 mixture (by volumes) of phosphate buffered saline (PBS, pH 7.4) and n-octanol in an Eppendorf tube. After vigorous mixing of the suspension for 3 minutes at room temperature, the vial was centrifuged at 15000 g for 5 minutes (Biofuge 15, Heraus Sepatech, Osterode, Germany) and 100 μL aliquots of both layers were measured in a gamma counter. The experiment was repeated at least six times.
# SST2 = molecular target: T1, SST2 (Homo sapiens, UniProt P30874); assay: Determination of IC50: competitive binding against [125I]TOC on SST2-transfected CHO cells; details: [125I]TOC reference radioligand, 60 min room temperature
# T1 construct: expressed in transfected cells; host or cells: CHO (Chinese hamster ovary) cells
# T1 sequence (P30874 whole entry, species assumed): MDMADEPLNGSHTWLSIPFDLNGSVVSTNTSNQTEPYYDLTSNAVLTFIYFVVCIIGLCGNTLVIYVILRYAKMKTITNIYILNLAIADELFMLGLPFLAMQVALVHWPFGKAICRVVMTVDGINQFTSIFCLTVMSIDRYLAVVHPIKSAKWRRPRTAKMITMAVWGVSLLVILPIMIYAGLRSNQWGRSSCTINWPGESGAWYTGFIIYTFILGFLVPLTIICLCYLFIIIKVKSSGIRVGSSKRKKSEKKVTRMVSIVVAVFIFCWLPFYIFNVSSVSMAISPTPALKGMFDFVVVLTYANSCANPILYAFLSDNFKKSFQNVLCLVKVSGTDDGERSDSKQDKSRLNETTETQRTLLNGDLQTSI
# Sequence of HSA (P02768 25-609): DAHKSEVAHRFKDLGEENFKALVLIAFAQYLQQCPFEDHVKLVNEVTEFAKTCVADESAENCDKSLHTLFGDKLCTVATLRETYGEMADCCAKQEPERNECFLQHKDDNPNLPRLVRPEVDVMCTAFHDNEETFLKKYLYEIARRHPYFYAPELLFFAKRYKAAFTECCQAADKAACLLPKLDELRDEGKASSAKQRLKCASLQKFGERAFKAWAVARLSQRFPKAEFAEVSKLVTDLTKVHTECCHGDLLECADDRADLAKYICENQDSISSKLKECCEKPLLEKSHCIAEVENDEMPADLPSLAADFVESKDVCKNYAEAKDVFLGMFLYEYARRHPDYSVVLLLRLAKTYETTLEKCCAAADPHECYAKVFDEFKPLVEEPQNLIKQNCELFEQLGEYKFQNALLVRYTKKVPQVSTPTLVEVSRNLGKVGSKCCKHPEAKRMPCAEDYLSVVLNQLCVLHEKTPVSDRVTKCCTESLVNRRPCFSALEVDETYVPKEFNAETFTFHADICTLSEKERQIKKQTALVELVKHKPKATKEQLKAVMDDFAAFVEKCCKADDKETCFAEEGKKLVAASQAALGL
Compound,HSA (HSA) [kDa],LogDpH=7.4 [1],IC50 (SST2) [nM]
C[C@@H](O)[C@H](NC(=O)C1CSSCC(NC(=O)C(Cc2ccccc2)NC(=O)CNC(=O)CNC(=O)[C@@H](CC(=O)O)NC(=O)C(CC(=O)O)NC(=O)[C@@H](CNC(=O)CN2CCN(CC(=O)O)CCN(CC(=O)O)CCN(CC(=O)O)CC2)NC(=O)C(CN)NC(=O)c2ccc([Si](F)(C(C)(C)C)C(C)(C)C)cc2)C(=O)N[C@@H](Cc2ccc(O)cc2)C(=O)NC(Cc2c[nH]c3ccccc23)C(=O)N[C@@H](CCCCN)C(=O)N[C@@H]([C@@H](C)O)C(=O)N1)C(=O)O (stereo partly shown) [[Ga]19],21.17,−2.11 ± 0.04,–
C[C@@H](O)[C@H](NC(=O)C1CSSCC(NC(=O)C(Cc2ccccc2)NC(=O)CNC(=O)CNC(=O)[C@@H](CC(=O)O)NC(=O)C(CC(=O)O)NC(=O)[C@@H](CNC(=O)CC[C@H](C(=O)O)N2CCN(CC(=O)O)CCN(CC(=O)O)CCN(CC(=O)O)CC2)NC(=O)C(CN)NC(=O)c2ccc([Si](F)(C(C)(C)C)C(C)(C)C)cc2)C(=O)N[C@@H](Cc2ccc(O)cc2)C(=O)NC(Cc2c[nH]c3ccccc23)C(=O)N[C@@H](CCCCN)C(=O)N[C@@H]([C@@H](C)O)C(=O)N1)C(=O)O (stereo partly shown) [[Lu]20],18.76,−2.35 ± 0.04,–
C[C@@H](O)[C@H](NC(=O)C1CSSCC(NC(=O)C(Cc2ccccc2)NC(=O)CNC(=O)CNC(=O)CNC(=O)C(CC(=O)O)NC(=O)[C@@H](CC(=O)O)NC(=O)C(CNC(=O)CN2CCN(CC(=O)O)CCN(CC(=O)O)CCN(CC(=O)O)CC2)NC(=O)C[N+](C)(C)Cc2ccc([Si](F)(C(C)(C)C)C(C)(C)C)cc2)C(=O)N[C@@H](Cc2ccc(O)cc2)C(=O)NC(Cc2c[nH]c3ccccc23)C(=O)N[C@@H](CCCCN)C(=O)N[C@@H]([C@@H](C)O)C(=O)N1)C(=O)O (stereo partly shown) [[Ga]50],8.18,−2.00 ± 0.12,–
C[C@@H](O)[C@H](NC(=O)C1CSSCC(NC(=O)C(Cc2ccccc2)NC(=O)CNC(=O)CNC(=O)CNC(=O)C(CC(=O)O)NC(=O)[C@@H](CC(=O)O)NC(=O)C(CNC(=O)CN2CCN(CC(=O)O)CCN(CC(=O)O)CCN(CC(=O)O)CC2)NC(=O)C[N+](C)(C)Cc2ccc([Si](F)(C(C)(C)C)C(C)(C)C)cc2)C(=O)N[C@@H](Cc2ccc(O)cc2)C(=O)NC(Cc2c[nH]c3ccccc23)C(=O)N[C@@H](CCCCN)C(=O)N[C@@H]([C@@H](C)O)C(=O)N1)C(=O)O (stereo partly shown) [[Lu]50],8.17,−1.79 ± 0.02,–
C[C@@H](O)[C@H](NC(=O)C1CSSCC(NC(=O)C(Cc2ccccc2)NC(=O)CNC(=O)CNC(=O)CNC(=O)C(CC(=O)O)NC(=O)[C@@H](CC(=O)O)NC(=O)C(CCC(=O)O)NC(=O)[C@@H](CNC(=O)C[N+](C)(C)Cc2ccc([Si](F)(C(C)(C)C)C(C)(C)C)cc2)NC(=O)CN2CCN(CC(=O)O)CCN(CC(=O)O)CCN(CC(=O)O)CC2)C(=O)N[C@@H](Cc2ccc(O)cc2)C(=O)NC(Cc2c[nH]c3ccccc23)C(=O)N[C@@H](CCCCN)C(=O)N[C@@H]([C@@H](C)O)C(=O)N1)C(=O)O (stereo partly shown) [[Ga]47],7.66,−2.30 ± 0.02,–
C[C@@H](O)[C@H](NC(=O)C1CSSCC(NC(=O)C(Cc2ccccc2)NC(=O)CNC(=O)CNC(=O)[C@@H](CC(=O)O)NC(=O)C(CC(=O)O)NC(=O)[C@@H](CNC(=O)CN2CCN(CC(=O)O)CCN(CC(=O)O)CCN(CC(=O)O)CC2)NC(=O)C[N+](C)(C)Cc2ccc([Si](F)(C(C)(C)C)C(C)(C)C)cc2)C(=O)N[C@@H](Cc2ccc(O)cc2)C(=O)NC(Cc2c[nH]c3ccccc23)C(=O)N[C@@H](CCCCN)C(=O)N[C@@H]([C@@H](C)O)C(=O)N1)C(=O)O (stereo partly shown) [[Ga]24],8.77,−1.92 ± 0.03,–
"C[C@@H](O)[C@H](NC(=O)C1CSSCC(NC(=O)C(Cc2ccccc2)NC(=O)CNC(=O)CNC(=O)CNC(=O)C(CC(=O)O)NC(=O)[C@@H](CC(=O)O)NC(=O)C(CNC(=O)CN2CCN(CC(=O)O)CCN(CC(=O)O)CCN(CC(=O)O)CC2)NC(=O)CNC(=O)C[N+](C)(C)Cc2ccc([Si](F)(C(C)(C)C)C(C)(C)C)cc2)C(=O)N[C@@H](Cc2ccc(O)cc2)C(=O)NC(Cc2c[nH]c3ccccc23)C(=O)N[C@@H](CCCCN)C(=O)N[C@@H]([C@@H](C)O)C(=O)N1)C(=O)O (stereo partly shown) (natGa complex, metal not drawn) [[Ga]60]",–,−2.24 ± 0.05,4.15 ± 0.79
"C[C@@H](O)[C@H](NC(=O)C1CSSCC(NC(=O)C(Cc2ccccc2)NC(=O)CNC(=O)CNC(=O)CNC(=O)C(CC(=O)O)NC(=O)[C@@H](CC(=O)O)NC(=O)C(CCCCN)NC(=O)[C@@H](CNC(=O)CN2CCN(CC(=O)O)CCN(CC(=O)O)CCN(CC(=O)O)CC2)NC(=O)C[N+](C)(C)Cc2ccc([Si](F)(C(C)(C)C)C(C)(C)C)cc2)C(=O)N[C@@H](Cc2ccc(O)cc2)C(=O)NC(Cc2c[nH]c3ccccc23)C(=O)N[C@@H](CCCCN)C(=O)N[C@@H]([C@@H](C)O)C(=O)N1)C(=O)O (stereo partly shown) (natGa complex, metal not drawn) [[Ga]57]",–,−2.25 ± 0.14,4.74 ± 0.22
"CC(O)C(NC(=O)C1CSSCC(NC(=O)C(Cc2ccccc2)NC(=O)CNC(=O)CNC(=O)CNC(=O)C(CC(N)=O)NC(=O)[C@@H](CC(N)=O)NC(=O)C(CNC(=O)CN2CCN(CC(=O)O)CCN(CC(=O)O)CCN(CC(=O)O)CC2)NC(=O)C[N+](C)(C)Cc2ccc([Si](F)(C(C)(C)C)C(C)(C)C)cc2)C(=O)N[C@@H](Cc2ccc(O)cc2)C(=O)NC(Cc2c[nH]c3ccccc23)C(=O)N[C@@H](CCCCN)C(=O)N[C@@H]([C@@H](C)O)C(=O)N1)C(=O)O (stereo partly shown) (natGa complex, metal not drawn) [[Ga]56]",–,−1.51 ± 0.03,4 ± 0.34
"C[C@@H](O)[C@H](NC(=O)C1CSSCC(NC(=O)C(Cc2ccccc2)NC(=O)CNC(=O)CNC(=O)[C@@H](CC(=O)O)NC(=O)C(CC(=O)O)NC(=O)[C@@H](CNC(=O)c2ccc([Si](F)(C(C)(C)C)C(C)(C)C)cc2)NC(=O)CN2CCN(CC(=O)O)CCN(CC(=O)O)CCN(CC(=O)O)CC2)C(=O)N[C@@H](Cc2ccc(O)cc2)C(=O)NC(Cc2c[nH]c3ccccc23)C(=O)N[C@@H](CCCCN)C(=O)N[C@@H]([C@@H](C)O)C(=O)N1)C(=O)O (stereo partly shown) (natGa complex, metal not drawn) [[Ga]8]",–,−2.02 ± 0.04,58.5 ± 10.8
"CC(O)C(NC(=O)C1CSSCC(NC(=O)C(Cc2ccccc2)NC(=O)CNC(=O)CNC(=O)CNC(=O)[C@@H](CCCN)NC(=O)[C@@H](CCCN)NC(=O)C(CNC(=O)CN2CCN(CC(=O)O)CCN(CC(=O)O)CCN(CC(=O)O)CC2)NC(=O)C[N+](C)(C)Cc2ccc([Si](F)(C(C)(C)C)C(C)(C)C)cc2)C(=O)N[C@@H](Cc2ccc(O)cc2)C(=O)NC(Cc2c[nH]c3ccccc23)C(=O)N[C@@H](CCCCN)C(=O)N[C@@H]([C@@H](C)O)C(=O)N1)C(=O)O (stereo partly shown) (natGa complex, metal not drawn) [[Ga]55]",–,−1.69 ± 0.04,4.1 ± 0.54
"C[C@@H](O)[C@@H]1NC(=O)[C@H](CCCCN)NC(=O)C(Cc2ccc(NC(N)=O)cc2)NC(=O)[C@H](Cc2ccc(NC(=O)C3CC(=O)NC(=O)N3)cc2)NC(=O)[C@H](NC(=O)[C@H](Cc2ccc(Cl)cc2)NC(=O)CNC(=O)CNC(=O)CNC(=O)C(CC(=O)O)NC(=O)[C@@H](CC(N)=O)NC(=O)C(CNC(=O)CN2CCN(CC(=O)O)CCN(CC(=O)O)CCN(CC(=O)O)CC2)NC(=O)C[N+](C)(C)Cc2ccc([Si](F)(C(C)(C)C)C(C)(C)C)cc2)CSSCC(C(=O)NC(Cc2ccc(O)cc2)C(N)=O)NC1=O (stereo partly shown) (natGa complex, metal not drawn) [[Ga]59]",–,−2.14 ± 0.03,23.7 ± 1.5
"C[C@@H](O)[C@H](NC(=O)C1CSSCC(NC(=O)C(Cc2ccccc2)NC(=O)CNC(=O)CNC(=O)[C@@H](CC(=O)O)NC(=O)C(CC(=O)O)NC(=O)[C@@H](CNC(=O)c2ccc([Si](F)(C(C)(C)C)C(C)(C)C)cc2)NC(=O)CCC(C(=O)O)N2CCN(CC(=O)O)CCN(CC(=O)O)CCN(CC(=O)O)CC2)C(=O)N[C@@H](Cc2ccc(O)cc2)C(=O)NC(Cc2c[nH]c3ccccc23)C(=O)N[C@@H](CCCCN)C(=O)N[C@@H]([C@@H](C)O)C(=O)N1)C(=O)O (stereo partly shown) (natGa complex, metal not drawn) [[Ga]6]",–,−2.15 ± 0.09,149 ± 20.3
"C[C@@H](O)[C@H](NC(=O)C1CSSCC(NC(=O)C(Cc2ccccc2)NC(=O)CNC(=O)CNC(=O)CNC(=O)C(CC(=O)O)NC(=O)[C@@H](CC(=O)O)NC(=O)C(CCCNC(N)=O)NC(=O)[C@@H](CNC(=O)CN2CCN(CC(=O)O)CCN(CC(=O)O)CCN(CC(=O)O)CC2)NC(=O)C[N+](C)(C)Cc2ccc([Si](F)(C(C)(C)C)C(C)(C)C)cc2)C(=O)N[C@@H](Cc2ccc(O)cc2)C(=O)NC(Cc2c[nH]c3ccccc23)C(=O)N[C@@H](CCCCN)C(=O)N[C@@H]([C@@H](C)O)C(=O)N1)C(=O)O (stereo partly shown) (natGa complex, metal not drawn) [[Ga]58]",–,−2.31 ± 0.04,4.41 ± 0.81
